Test results reported in ChEMBL document CHEMBL1155212, “Discovery and structure-activity relationships of a novel class of quinazoline glucokinase activators” (Bioorg Med Chem Lett, 2009).

Tests used:
[1] = AUC (0 to infinity) in Sprague-Dawley rat at 1 mg/kg, iv; format: ADME, organism-based; parameters: time infinity, dose 1 mg/kg, route intravenous; conditions: plasma
[2] = Tmax in Sprague-Dawley rat at 3 mg/kg; format: ADME, organism-based; parameters: dose 3 mg/kg; conditions: in vivo
[3] = Oral bioavailability in Sprague-Dawley rat at 3 mg/kg; format: ADME, organism-based; conditions: in vivo
[4] = AUC (0 to infinity) in Sprague-Dawley rat at 3 mg/kg; format: ADME, organism-based; parameters: dose 3 mg/kg, time infinity; conditions: plasma
[5] = Half life in Sprague-Dawley rat at 1 mg/kg, iv; format: ADME, organism-based; parameters: dose 1 mg/kg, route intravenous; conditions: in vivo
[6] = Plasma clearance in Sprague-Dawley rat at 1 mg/kg, iv; format: ADME, organism-based; parameters: dose 1 mg/kg, route intravenous
physchem = conditions: buffer, pH 7.4
[7] = Volume of distribution at steady state in Sprague-Dawley rat at 1 mg/kg, iv; format: ADME, organism-based; parameters: dose 1 mg/kg, route intravenous; conditions: in vivo, read-out: Vdss
[8] = Cmax in Sprague-Dawley rat at 3 mg/kg; format: ADME, organism-based; parameters: dose 3 mg/kg; conditions: in vivo

SMILES	logD (physchem)	other results
Cn1ccc(Nc2ncnc3ccc(Oc4ccccn4)cc23)n1	2.1	
Cc1cccc(S(C)(=O)=O)c1Oc1ccc2ncnc(Nc3ccn(C)n3)c2c1	2.1	
Cn1ccc(Nc2ncnc3ccc(Oc4ncccc4F)cc23)n1	2.4	
Cc1csc(Nc2ncnc3ccc(Oc4ccccc4F)cc23)n1	5.8	
Cn1ccc(Nc2ncnc3ccc(Oc4ncccc4CO)cc23)n1	1.7	
Cn1ccc(Nc2ncnc3ccc(Oc4ncccc4Br)cc23)n1	3.4	
Cn1ccc(Nc2ncnc3ccc(Oc4ccccc4S(C)(=O)=O)cc23)n1	1.9	
Cn1ccc(Nc2ncnc3ccc(Oc4ccncn4)cc23)n1	1.7	
Cn1ccc(Nc2ncnc3ccc(Oc4ccc(F)cc4F)cc23)n1	3.6	
Cc1csc(Nc2ncnc3ccc(Oc4ccccc4S(C)(=O)=O)cc23)n1	4.3	
Cn1ccc(Nc2ncnc3ccc(Oc4ncccc4Cl)cc23)n1	2.9	
CN(C)C(=O)c1cccnc1Oc1ccc2ncnc(Nc3ccn(C)n3)c2c1	1.4	
Cc1csc(Nc2ncnc3ccc(Oc4ccc(F)cc4)cc23)n1	5.8	
Cc1cccc(C#N)c1Oc1ccc2ncnc(Nc3ccn(C)n3)c2c1	3.4	
Cn1ccc(Nc2ncnc3ccc(Oc4c(F)cccc4F)cc23)n1	3.7	

Continued, in another order:

logD (physchem)	SMILES	other results
1.9	Cn1ccc(Nc2ncnc3ccc(Oc4c(F)cccc4S(C)(=O)=O)cc23)n1	AUC(0-inf) [1]: 6.3 µM·h; Tmax [2]: 0.9 h; bioavailability [3]: 71%; AUC(0-inf) [4]: 13.3 µM·h; half-life [5]: 1.3 h; clearance [6]: 0.408 L/h/kg; Vd [7]: 0.5 L/kg; Cmax [8]: 5.8 µM
2.3	Cn1ccc(Nc2ncnc3ccc(Oc4c(Cl)cccc4S(C)(=O)=O)cc23)n1	
3.1	Cc1nsc(Nc2ncnc3ccc(Oc4c(F)cccc4S(C)(=O)=O)cc23)n1	
2.4	CCn1ccc(Nc2ncnc3ccc(Oc4c(F)cccc4S(C)(=O)=O)cc23)n1	
2	CS(=O)(=O)c1cccc(F)c1Oc1ccc2ncnc(Nc3cccnn3)c2c1	
1.8	CS(=O)(=O)c1cccc(F)c1Oc1ccc2ncnc(Nc3cc[nH]n3)c2c1	
2.5	Cc1cnc(Nc2ncnc3ccc(Oc4c(F)cccc4S(C)(=O)=O)cc23)cn1	
2.2	CS(=O)(=O)c1cccc(F)c1Oc1ccc2ncnc(Nc3cnccn3)c2c1	
3.6	CS(=O)(=O)c1cccc(F)c1Oc1ccc2ncnc(Nc3ccccn3)c2c1	
